Laboratory results taken from patent US20220265629A1, “TREATMENT OF SYSTOLIC DYSFUNCTION AND HEART FAILURE WITH REDUCED EJECTION FRACTION WITH THE COMPOUND (R)-4-(1-((3-(DIFLUOROMETHYL)-1-METHYL-1H-PYRAZOL-4-YL)SULFONYL)-1-FLUOROETHYL)-N-(ISOXAZOL-3-YL)PIPERIDINE-1-CARBOXAMIDE” (MyoKardia, Inc., priority 2019, published 2022).
Where two headings read alike, the source gives them in different places.

Test: Single ascending oral dose study in healthy volunteers: plasma pharmacokinetics
Format: in vivo, human
Settings: human, plasma, oral; for concentration at 6 h: 6 Hours Postdose; for concentration at 12 h: 12 Hours Postdose; for concentration at 24 h: 24 Hours Postdose; for concentration at 48 h: 48 Hours Postdose; for concentration at 72 h: 72 Hours Postdose
Source text: This example describes the first-in-human study of Compound I. Based on its mechanism of action, Compound I may offer a targeted therapy for patients with DCM caused by genetic or nongenetic mechanisms. The study was a randomized, double-blind, placebo-controlled, sequential group, single-ascending (oral) close study in healthy subjects aged 18-55 years. Eight dosing cohorts, each comprising eight healthy subjects, were enrolled. Within each cohort, subjects were randomized 6:2 to Compound I:placebo.
Subjects were resident at the clinical site for up to 5 days and 4 nights, from Day −1 (the day before dosing) to Day 4, and received a single dose of Compound I or placebo on Day 1. ECG telemetry was initiated 1 hour preclose and continued through 48 hours postclose (Day 3). Any subject with a preclose resting HR≥80 beats per minute was considered ineligible and not treated. […] Subjects returned for a safety follow-up visit 7 days (±1 day) after dosing.
All randomized study subjects received either Compound I or matching placebo as a single oral dose after a fasting period of at least 6 hours. Compound I drug substance is a crystalline, free-base, synthetic molecule with a molecular weight of 435.4 g/mol.
Compound I was provided as a powder for oral suspension. Placebo was provided as calcium carbonate powder. Both treatments were closed orally as a suspension. The suspension was made using Ora-Plus® suspending vehicle (Perrigo) and a cherry syrup flavoring vehicle (Humco), mixed 50% to 50%. The suspension was followed by approximately 100 mL water. The suspension was made up within 14 days from the time in which it was closed which was consistent with the stability data on the suspension. The suspension was made up so the volume administered to the subjects who received Compound I was the same at 20 mL.
Each subject received a close according to the cohort in which they were enrolled. Cohorts were enrolled sequentially, with each cohort receiving an escalated dose of Compound I. The closes administered were 3 mg, 10 mg, 25 mg, 50 mg, 100 mg, 175 mg, 350 mg, and 525 mg, respectively.
The concentrations of Compound I in human plasma and urine were quantitated by high performance liquid chromatography with tandem mass spectrometric detection (LC MS/MS) (Biological sample analysis study report Alturas AD17-726). Plasma samples were extracted by protein precipitation with acetonitrile containing internal standard MYK-5654. The calibration curves were linear over concentration range of 0.500 to 1000 ng/mL with a lower limit of quantification (LLOQ) of 0.500 ng/mL.
The PK Population included all subjects who received Compound I. Blood samples were collected for PK assessments. The actual timing of the samples may have been modified and/or up to an additional 2 samples may have been requested by the SRC after review of the data from previous cohorts. It was important that PK sampling occurred as closely as possible to the scheduled time (±10%). Both blood and urine samples were used for PK assessments.
In addition, for subjects who received placebo, a single plasma sample near the predicted tmax of Compound I was evaluated to confirm the lack of circulating Compound I. Plasma concentration data for Compound I was summarized using descriptive statistics, including mean, standard deviation (SD), median, minimum, and maximum values, and percent coefficient of variation. Other PK parameters included (but were not limited to) Cmax, tmax, AUC, t1/2, and MRT. Additionally, the apparent terminal-phase terminal half-life was calculated. The close proportionality of AUC and Cmax was explored.

[1] = 100 mg, 100 mg, read-out: Plasma concentration, Geometric Mean
[2] = 100 mg, 100 mg, read-out: Plasma concentration, Mean
[3] = 100 mg, 100 mg, read-out: Plasma concentration, Median
[4] = 175 mg, 175 mg, read-out: Plasma concentration, Geometric Mean
[5] = 175 mg, 175 mg, read-out: Plasma concentration, Mean
[6] = 175 mg, 175 mg, read-out: Plasma concentration, Median

Cn1cc(S(=O)(=O)[C@@](C)(F)C2CCN(C(=O)Nc3ccon3)CC2)c(C(F)F)n1 [Compound I, (R)-4-(1-((3-(difluoromethyl)-1-methyl-1H-pyrazol-4-yl)sulfonyl)-1-fluoroethyl)-N-(isoxazol-3-yl)piperidine-1-carboxamide]
Vd/F (50 mg, read-out: Vz/F, Mean): 87.9 L | Vd/F (50 mg, read-out: Vz/F, Median): 90.6 L | concentration at 6 h [1]: 934 ng/mL | concentration at 6 h [2]: 947 ng/mL | concentration at 6 h [3]: 935 ng/mL | concentration at 12 h [1]: 661 ng/mL | concentration at 12 h [2]: 674 ng/mL | concentration at 12 h [3]: 637 ng/mL | concentration at 24 h [1]: 374 ng/mL | concentration at 24 h [2]: 384 ng/mL | concentration at 24 h [3]: 372 ng/mL | concentration at 48 h [1]: 71 ng/mL | concentration at 48 h [2]: 91.1 ng/mL | concentration at 48 h [3]: 104 ng/mL | concentration at 72 h [2]: 23.2 ng/mL | concentration at 72 h [3]: 24.2 ng/mL | AUC(0-t) (100 mg, read-out: AUC0-24, Geometric Mean): 15200 ng·h/mL | AUC(0-t) (100 mg, read-out: AUC0-24, Mean): 15400 ng·h/mL | AUC(0-t) (100 mg, read-out: AUC0-24, Median): 14900 ng·h/mL | AUC(0-t) (100 mg, read-out: AUC0-48, Geometric Mean): 21100 ng·h/mL | AUC(0-t) (100 mg, read-out: AUC0-48, Mean): 21400 ng·h/mL | AUC(0-t) (100 mg, read-out: AUC0-48, Median): 21600 ng·h/mL | AUC(0-t) (100 mg, read-out: AUC0-last, Geometric Mean): 21700 ng·h/mL | AUC(0-t) (100 mg, read-out: AUC0-last, Mean): 22700 ng·h/mL | AUC(0-t) (100 mg, read-out: AUC0-last, Median): 22400 ng·h/mL | AUC(0-inf) (100 mg, read-out: AUC0-∞, Geometric Mean): 21300 ng·h/mL | AUC(0-inf) (100 mg, read-out: AUC0-∞, Mean): 21700 ng·h/mL | AUC(0-inf) (100 mg, read-out: AUC0-∞, Median): 18700 ng·h/mL | Cmax (100 mg, read-out: Cmax, Geometric Mean): 1000 ng/mL | Cmax (100 mg, read-out: Cmax, Mean): 1020 ng/mL | Cmax (100 mg, read-out: Cmax, Median): 983 ng/mL | half-life (100 mg, read-out: Half-Life Lambda Z, Geometric Mean (converted)): 11.1 h | half-life (100 mg, read-out: Half-Life Lambda Z, Mean (converted)): 11.7 h | half-life (100 mg, read-out: Half-Life Lambda Z, Median (converted)): 12.5 h | MRT (100 mg, read-out: Mean Residence Time, Geometric Mean): 19.1 h | MRT (100 mg, read-out: Mean Residence Time, Mean): 19.5 h | MRT (100 mg, read-out: Mean Residence Time, Median): 20.4 h | Tmax (100 mg, read-out: Tmax, Geometric Mean): 4.42 h | Tmax (100 mg, read-out: Tmax, Mean): 4.5 h | Tmax (100 mg, read-out: Tmax, Median): 5 h | Vd/F (100 mg, read-out: Vz/F, Geometric Mean): 74.9 L | Vd/F (100 mg, read-out: Vz/F, Mean): 77.9 L | Vd/F (100 mg, read-out: Vz/F, Median): 82.1 L | concentration at 6 h [4]: 1260 ng/mL | concentration at 6 h [5]: 1270 ng/mL | concentration at 6 h [6]: 1250 ng/mL | concentration at 12 h [4]: 1040 ng/mL | concentration at 12 h [5]: 1050 ng/mL | concentration at 12 h [6]: 1040 ng/mL | concentration at 24 h [4]: 650 ng/mL | concentration at 24 h [5]: 664 ng/mL | concentration at 24 h [6]: 690 ng/mL | concentration at 48 h [4]: 203 ng/mL | concentration at 48 h [5]: 212 ng/mL | concentration at 48 h [6]: 224 ng/mL | concentration at 72 h [4]: 64 ng/mL | concentration at 72 h [5]: 71.3 ng/mL | concentration at 72 h [6]: 73.2 ng/mL | AUC(0-t) (175 mg, read-out: AUC0-24, Geometric Mean): 22000 ng·h/mL | AUC(0-t) (175 mg, read-out: AUC0-24, Mean): 22300 ng·h/mL | AUC(0-t) (175 mg, read-out: AUC0-24, Median): 21700 ng·h/mL | AUC(0-t) (175 mg, read-out: AUC0-48, Geometric Mean): 32300 ng·h/mL | AUC(0-t) (175 mg, read-out: AUC0-48, Mean): 32800 ng·h/mL | AUC(0-t) (175 mg, read-out: AUC0-48, Median): 32700 ng·h/mL | AUC(0-t) (175 mg, read-out: AUC0-last, Geometric Mean): 38200 ng·h/mL | AUC(0-t) (175 mg, read-out: AUC0-last, Mean): 39000 ng·h/mL | AUC(0-t) (175 mg, read-out: AUC0-last, Median): 39600 ng·h/mL | AUC(0-inf) (175 mg, read-out: AUC0-∞, Geometric Mean): 38300 ng·h/mL | AUC(0-inf) (175 mg, read-out: AUC0-∞, Mean): 39100 ng·h/mL | AUC(0-inf) (175 mg, read-out: AUC0-∞, Median): 39700 ng·h/mL | Cmax (175 mg, read-out: Cmax, Geometric Mean): 1300 ng/mL | Cmax (175 mg, read-out: Cmax, Mean): 1320 ng/mL | Cmax (175 mg, read-out: Cmax, Median): 1300 ng/mL | half-life (175 mg, read-out: Half-Life Lambda Z, Geometric Mean (converted)): 15.8 h | half-life (175 mg, read-out: Half-Life Lambda Z, Mean (converted)): 15.8 h | half-life (175 mg, read-out: Half-Life Lambda Z, Median (converted)): 16.4 h | MRT (175 mg, read-out: Mean Residence Time, Geometric Mean): 24.4 h | MRT (175 mg, read-out: Mean Residence Time, Mean): 24.6 h | MRT (175 mg, read-out: Mean Residence Time, Median): 24.4 h | Tmax (175 mg, read-out: Tmax, Geometric Mean): 5.07 h | Tmax (175 mg, read-out: Tmax, Mean): 5.11 h | Tmax (175 mg, read-out: Tmax, Median): 5 h | Vd/F (175 mg, read-out: Vz/F, Geometric Mean): 104 L | Vd/F (175 mg, read-out: Vz/F, Mean): 106 L | Vd/F (175 mg, read-out: Vz/F, Median): 101 L | AUC(0-t) (350 mg + 525 mg, read-out: AUC0-24, Geometric Mean): 40900 ng·h/mL | AUC(0-t) (350 mg + 525 mg, read-out: AUC0-24, Mean): 42100 ng·h/mL | AUC(0-t) (350 mg + 525 mg, read-out: AUC0-24, Median): 38500 ng·h/mL | AUC(0-t) (350 mg + 525 mg, read-out: AUC0-48, Geometric Mean): 60500 ng·h/mL | AUC(0-t) (350 mg + 525 mg, read-out: AUC0-48, Mean): 62400 ng·h/mL | AUC(0-t) (350 mg + 525 mg, read-out: AUC0-48, Median): 57400 ng·h/mL | AUC(0-t) (350 mg + 525 mg, read-out: AUC0-last, Geometric Mean): 70600 ng·h/mL | AUC(0-t) (350 mg + 525 mg, read-out: AUC0-last, Mean): 74000 ng·h/mL | AUC(0-t) (350 mg + 525 mg, read-out: AUC0-last, Median): 68600 ng·h/mL | AUC(0-inf) (350 mg + 525 mg, read-out: AUC0-∞, Geometric Mean): 71000 ng·h/mL | AUC(0-inf) (350 mg + 525 mg, read-out: AUC0-∞, Mean): 74400 ng·h/mL | AUC(0-inf) (350 mg + 525 mg, read-out: AUC0-∞, Median): 68800 ng·h/mL | Cmax (350 mg + 525 mg, read-out: Cmax, Geometric Mean): 2530 ng/mL | Cmax (350 mg + 525 mg, read-out: Cmax, Mean): 2580 ng/mL | Cmax (350 mg + 525 mg, read-out: Cmax, Median): 2500 ng/mL | half-life (350 mg + 525 mg, read-out: Half-Life Lambda Z, Geometric Mean (converted)): 14.5 h | half-life (350 mg + 525 mg, read-out: Half-Life Lambda Z, Mean (converted)): ~15 h | half-life (350 mg + 525 mg, read-out: Half-Life Lambda Z, Median (converted)): 14.5 h | MRT (350 mg + 525 mg, read-out: Mean Residence Time, Geometric Mean): 23.9 h | MRT (350 mg + 525 mg, read-out: Mean Residence Time, Mean): 24.3 h | MRT (350 mg + 525 mg, read-out: Mean Residence Time, Median): 23.5 h | Tmax (350 mg + 525 mg, read-out: Tmax, Geometric Mean): 4.89 h | Tmax (350 mg + 525 mg, read-out: Tmax, Mean): 5 h | Vd/F (350 mg + 525 mg, read-out: Vz/F, Geometric Mean): 126 L | Vd/F (350 mg + 525 mg, read-out: Vz/F, Mean): 132 L | Vd/F (350 mg + 525 mg, read-out: Vz/F, Median): 116 L | concentration at 6 h (350 mg, 350 mg, read-out: Plasma concentration, Geometric Mean): 2620 ng/mL
